In article PMC8270338, “Exploring New Scaffolds for the Dual Inhibition of HIV-1 RT Polymerase and Ribonuclease Associated Functions” (Molecules, 2021):
Structures can show the parent of a compound that is named as a salt. Where two headings read alike, the source gives them in different places.

What was measured:
[1] = biological target: T1, HIV-1 RT-associated RNase H (Human immunodeficiency virus type 1 group M subtype B, UniProt P04585); assay: HIV-1 RT-associated DNA polymerase-independent RNase H activity determination; format: biochemical, HIV-1 group M subtype B; conditions: full length HIV-1 wt RT, no pre-incubation with the enzyme, 1 h at 37 °C; concentration reducing RNase H activity by 50%
T1 construct: The full length HIV-1 RT group M subtype B was expressed and purified; made in house
Procedure: The full length HIV-1 RT group M subtype B was expressed and purified as previously described. The HIV RT-associated RNase H activity was measured as described. […] Reactions were stopped by the addition of EDTA and products were measured with a Perkin–Elmer Victor 3 multilabel counter plate reader (Waltham, MA, USA) at excitation–emission wavelength of 490/528 nm (Table 1).

[2] = biological target: T2, HIV-1 RT-associated RNA-dependent DNA-polymerase (RDDP) (Human immunodeficiency virus type 1 group M subtype B, UniProt P04585); assay: biochemical; design: species or system HIV-1 group M subtype B
T2 construct: The full length HIV-1 RT group M subtype B was expressed and purified; made in house
Procedure: The HIV-1 RT-associated RNA-Dependent DP activity was measured as previously described. […] The enzymatic reaction was stopped by the addition of EDTA.

SMILES | melting point | IC50 [1] [µM] | IC50 ([2]; read-out: RDDP IC50) [µM] | IC50 [2] [µM]
COc1ccc(-c2ccccc2C(N)=O)cc1/C=N/Nc1nc(-c2ccc([N+](=O)[O-])cc2)cs1 (as salt: bromide) [EMAC2063, 2-{3-[(2-{4-[4-nitrophenyl]-1,3-thiazol-2-yl}hydrazin-1-ylidene)methyl]-4-methoxyphenyl}benzamide bromide] | 208 °C (dec.) | – | – | –
COc1ccc(-c2csc(NN=Cc3cc(-c4ccccc4)ccc3OC)n2)cc1 [EMAC2056, 2-[2-[(2-Methoxy-5-Phenylphenyl)methylidene]hydrazin-1-yl]-4-(4-Methoxyphenyl)-1,3-Thiazole Bromide] | – | 19.5 ± 5.5 | 36 ± 5 | –
COc1ccc(-c2ccccc2)cc1C=NNc1nc(-c2ccc(Cl)c(Cl)c2)cs1 [EMAC2057, 4-(3,4-dichlorophenyl)-2-[2-[(2-methoxy-5-phenylphenyl)methylidene]hydrazin-1-yl]-1,3-thiazole bromide] | – | 57 ± 5 | 88 ± 12 | –
COc1ccc(-c2ccccc2)cc1C=NNc1nc(-c2cccc(Cl)c2)cs1 [EMAC2058, 4-(3-chlorophenyl)-2-[2-[(2-methoxy-5-phenylphenyl)methylidene]hydrazin-1-yl]-1,3-thiazole bromide] | – | 46 ± 1 | 56.5 ± 9.5 | –
COc1ccc(-c2ccccc2)cc1C=NNc1nc(-c2ccc([N+](=O)[O-])cc2)cs1 [EMAC2059, 4-(4-nitrophenyl)-2-[2-[(2-methoxy-5-phenylphenyl)methylidene]hydrazin-1-yl]-1,3-thiazole bromide] | – | 12.8 ± 4.3 | 39.5 ± 11.5 | –
COc1ccc(-c2csc(N/N=C/c3cc(-c4ccccc4C(N)=O)ccc3OC)n2)cc1 [EMAC2060, 2-{4-methoxy-3-[(1E)-{2-[4-(4-methoxyphenyl)-1,3-thiazol-2-yl]hydrazin-1-ylidene}methyl]phenyl}benzamide bromide] | – | 21.5 ± 3.5 | 27 ± 1 | –
COc1ccc(-c2ccccc2C(N)=O)cc1C=NNc1nc(-c2ccc(Cl)c(Cl)c2)cs1 [EMAC2061, 2-{3-[{2-[4-(3,4-dichlorophenyl)-1,3-thiazol-2-yl]hydrazin-1-ylidene}methyl]-4-methoxyphenyl}benzamide bromide] | – | 6.5 ± 2.5 | 19.5 ± 0.5 | –
COc1ccc(-c2ccccc2C(N)=O)cc1C=NNc1nc(-c2ccc(Cl)cc2)cs1 [EMAC2062, 2-{3-[{2-[4-(4-chlorophenyl)-1,3-thiazol-2-yl]hydrazin-1-ylidene}methyl]-4-methoxyphenyl}benzamide bromide] | – | 8 ± 2 | 17 ± 2 | –
COc1ccc(-c2ccccc2C(N)=O)cc1/C=N/Nc1nc(-c2ccc([N+](=O)[O-])cc2)cs1 [EMAC2063, 2-{3-[(2-{4-[4-nitrophenyl]-1,3-thiazol-2-yl}hydrazin-1-ylidene)methyl]-4-methoxyphenyl}benzamide bromide] | – | 4.5 ± 0.5 | – | 8
COc1ccc(-c2csc(NN=Cc3cc(-c4ccccc4Br)ccc3OC)n2)cc1 [EMAC2064, 2-{[5-(2-bromophenyl)-2-methoxyphenyl]methylidene}hydrazin-1-yl]-4-(4-methoxyphenyl)-1,3-thiazole bromide] | – | 13 ± 4 | 32.5 ± 2.5 | –
COc1ccc(-c2ccccc2Br)cc1C=NNc1nc(-c2ccc(Cl)c(Cl)c2)cs1 [EMAC2065, 2-{[5-(2-bromophenyl)-2-methoxyphenyl]methylidene}hydrazin-1-yl]-4-(3,4-dicholophenyl)-1,3-thiazole bromide] | – | 15 ± 1 | 53.5 ± 15.5 | –
COc1ccc(-c2ccccc2Br)cc1C=NNc1nc(-c2ccc(Cl)cc2)cs1 [EMAC2066, 2-{[5-(2-bromophenyl)-2-methoxyphenyl]methylidene}hydrazin-1-yl]-4-(4-cholophenyl)-1,3-thiazole bromide] | – | 47 ± 3 | 71.5 ± 6.5 | –
COc1ccc(-c2ccccc2Br)cc1C=NNc1nc(-c2ccc([N+](=O)[O-])cc2)cs1 [EMAC2067, 2-{[5-(2-bromophenyl)-2-methoxyphenyl]methylidene}hydrazin-1-yl]-4-(4-nitrophenyl)-1,3-thiazole bromide] | – | 27 ± 5 | 30 ± 3 | –
COc1ccc(-c2csc(NN=Cc3cc(-c4ccc(F)cc4)ccc3OC)n2)cc1 [EMAC2068, 2-[2-{[5-(4-fluorophenyl)-2-methoxyphenyl]methylidene}hydrazin-1-yl]-4-(4-methoxyphenyl)-1,3-thiazole bromide] | – | 29.5 ± 3.5 | 61.5 ± 8.5 | –
COc1ccc(-c2ccc(F)cc2)cc1C=NNc1nc(-c2ccc(Cl)c(Cl)c2)cs1 [EMAC2069, 4-(3,4-dichlorophenyl)-2-[-2-{[5-(4-fluorophenyl)-2-methoxyphenyl]methylidene}hydrazin-1-yl]-1,3-thiazole bromide] | – | 52.5 ± 10.5 | 66 ± 2 | –
COc1ccc(-c2ccc(F)cc2)cc1C=NNc1nc(-c2ccc(Cl)cc2)cs1 [EMAC2070, 4-(4-chlorophenyl)-2-[-2-{[5-(4-fluorophenyl)-2-methoxyphenyl]methylidene}hydrazin-1-yl]-1,3-thiazole bromide] | – | 55.5 ± 1.5 | 59 ± 6 | –
COc1ccc(-c2ccc(F)cc2)cc1C=NNc1nc(-c2ccc([N+](=O)[O-])cc2)cs1 [EMAC2071, [(4-{2-[2-{[5-(4-fluorophenyl)-2-methoxyphenyl]methylidene}hydrazin-1-yl]-1,3-thiazol-4-yl}phenyl)nitroso]oxidanol bromide] | – | 19 ± 1 | 47.5 ± 11.5 | –
